According to patent US8679530B2 (Your Energy Systems, LLC, priority 2004, dated 2014):

Key:
[1] = Case report Example 5: blood pressure in diabetic hypertensive; type: in vivo, human; conditions: lisinopril 20 mg twice a day, over 3 days; before 188/92
Method: The patient with diabetes requiring insulin therapy also has a long history of elevated blood pressure. The blood pressure was previously controlled using lisinopril 20 mg. daily. […] The dose of lisinopril was lowered to 20 mg once a day.

[2] = intravenous administration; cited from earlier work

Row | Structure (SMILES) | blood pressure [1] | blood flow in peripheral vascular disease [2]
1 | NCCCC[C@H](N[C@@H](CCc1ccccc1)C(=O)O)C(=O)N1CCC[C@H]1C(=O)O [lisinopril] | 145/92 | 
2 | N[C@@H](CCC(=O)N[C@@H](CS)C(=O)NCC(=O)O)C(=O)O [reduced glutathione, gamma-glutamyl-cysteinyl-glycine] |  | benefit in improving blood flow
